Data as given in the supplement of paper PMC11061612.

Columns and labels:
[1] = compound: CC(=O)c1c(C)c2cnc(Nc3ccc(N4CCNCC4)cn3)nc2n(C2CCCC2)c1=O [Palbociclib]; settings: max 10 µM
Outline: (§1)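 Cancer cell lines were seeded into 1536-well plates in 7.5 μl medium (DMEM/F12 or RPMI, 10% FBS), held 24 hours at 37°C and 5% CO2, and dosed for 72 hours with final DMSO typically 0.2%. Luminescence from CellTiter-Glo 2.0, scaled between blank-well and DMSO-well means, served as viability. The single-agent IC50 was obtained from dose-response fits with a non-linear mixed effects model, each fit being a two-parameter logistic curve.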

[2] = compound: CC(C)n1c(=O)n(C)c2cnc3cc(F)c(-c4ccc(OCCCN5CCCCC5)nc4)cc3c21 [AZD1390]; settings: max 0.3 µM
Outline: as §1

[3] = compound: C1CC(C1)(C(=O)[O-])C(=O)[O-].N.N.[Pt+2] [Carboplatin]; settings: max 10 µM
Outline: as §1

[4] = compound: C[C@@H](Nc1cc(F)cc(F)c1)c1cc(C(=O)N(C)C)cc2c(=O)cc(N3CCOCC3)oc12 [AZD8186]; settings: max 10 µM
Outline: as §1

[5] = compound: Cc1cc2ncnn2cc1Nc1ncc2c(n1)n(C1CCOCC1)c(=O)n2C [AZD7648]; settings: max 10 µM
Outline: as §1

[6] = compound: COc1cc(Nc2ncc3c(n2)-c2ccc(Cl)cc2C(c2c(F)cccc2OC)=NC3)ccc1C(=O)O [Alisertib]; settings: max 10 µM
Outline: as §1

[7] = compound: CC1(C)CCC(CN2CCN(c3ccc(C(=O)NS(=O)(=O)c4ccc(NCC5CCOCC5)c([N+](=O)[O-])c4)c(Oc4cnc5[nH]ccc5c4)c3)CC2)=C(c2ccc(Cl)cc2)C1 [Venetoclax]; settings: max 1 µM
Outline: as §1

[8] = compound: CC1=C(C(=CC=C1)Cl)NC(=O)C2=CN=C(S2)NC3=CC(=NC(=N3)C)N4CCN(CC4)CCO [Dasatinib]; settings: max 2 µM
Outline: as §1

[9] = compound: C=CCn1c(=O)c2cnc(Nc3ccc(N4CCN(C)CC4)cc3)nc2n1-c1cccc(C(C)(C)O)n1 [AZD1775]; settings: max 3 µM
Outline: as §1

[10] = compound: C[C@@H](Oc1cc(-c2cnn(C3CCNCC3)c2)cnc1N)c1c(Cl)ccc(F)c1Cl [Crizotinib]; settings: max 10 µM
Outline: as §1

[11] = compound: O=c1[nH]cc(F)c(=O)[nH]1 [5-Fluorouracil]; settings: max 20 µM
Outline: as §1

[12] = compound: CC(=O)Nc1cccc(-n2c(=O)n(C3CC3)c(=O)c3c(Nc4ccc(I)cc4F)n(C)c(=O)c(C)c32)c1 [Trametinib]; settings: max 1 µM
Outline: as §1

[13] = compound: CN(C)CCCOc1ccc(-c2ccc3ncc4c(c3c2)n(C2CCOCC2)c(=O)n4C)cn1 [AZD0156]; settings: max 3 µM
Outline: as §1

[14] = compound: CCc1c2c(nc3ccc(O)cc13)-c1cc3c(c(=O)n1C2)COC(=O)[C@]3(O)CC [SN-38]; settings: max 0.3 µM
Outline: as §1

[15] = compound: NC1(c2ccc(-c3nc4ccn5c(=O)[nH]nc5c4cc3-c3ccccc3)cc2)CCC1 [MK-2206]; settings: max 10 µM
Outline: as §1

[16] = compound: CCN(CCO)CCCOc1ccc2c(Nc3cc(CC(=O)Nc4cccc(F)c4)[nH]n3)ncnc2c1 [AZD2811]; settings: max 1 µM
Outline: as §1

[17] = compound: C[C@@H](c1ccc2nccn2c1)n1nnc2ncc(-c3cnn(C)c3)nc21 [Savolitinib]; settings: max 1 µM
Outline: as §1

[18] = compound: Cc1c2c(nn1C)CSCc1cc(n(C)n1)CSc1cc(c3ccccc3c1)OCCCc1c(C(=O)O)n(C)c3c-2c(Cl)ccc13 [AZD5991]; settings: max 1 µM
Outline: as §1

[19] = compound: O=C(Nc1ccc2[nH]nc(-c3ccncc3)c2c1)[C@@H]1CCN(CC(=O)N2CCN(c3ccc(-c4ncccn4)cc3)CC2)C1; settings: max 5 µM
Outline: as §1

[20] = compound: COc1cc2ncnc(Nc3ccc(F)c(Cl)c3)c2cc1OCCCN1CCOCC1 [Gefitinib]; settings: max 10 µM
Outline: as §1

[21] = compound: COc1cccc(OCCCN)c1-c1cc(Nc2cnc(C#N)cn2)n[nH]1 [Prexasertib]; settings: max 1 µM
Outline: as §1

[22] = compound: COc1cc([C@@H]2c3cc4c(cc3[C@@H](O[C@@H]3O[C@@H]5CO[C@@H](C)O[C@H]5[C@H](O)[C@H]3O)[C@H]3COC(=O)[C@H]23)OCO4)cc(OC)c1O [Etoposide]; settings: max 10 µM
Outline: as §1

[23] = compound: CC(=O)O[C@H]1C(=O)[C@@]2(C)[C@H]([C@H](OC(=O)c3ccccc3)[C@]3(O)C[C@H](OC(=O)[C@H](O)[C@@H](NC(=O)c4ccccc4)c4ccccc4)C(C)=C1C3(C)C)[C@]1(OC(C)=O)CO[C@@H]1C[C@@H]2O [Paclitaxel]; settings: max 3 µM
Outline: as §1

[24] = compound: COc1nnc2ccc(N3CCC(c4ccc(OCCN5CCN(C)C(=O)[C@H]5C)cc4)CC3)nn12 [AZD5153]; settings: max 1 µM
Outline: as §1

[25] = compound: O=C(c1cc(Cc2n[nH]c(=O)c3ccccc23)ccc1F)N1CCN(C(=O)C2CC2)CC1 [Olaparib]; settings: max 10 µM
Outline: as §1

[26] = compound: CS(=O)(=O)CCNCc1ccc(-c2ccc3ncnc(Nc4ccc(OCc5cccc(F)c5)c(Cl)c4)c3c2)o1 [Lapatinib]; settings: max 10 µM
Outline: as §1

[27] = compound: Cn1cnc2c(F)c(Nc3ccc(Br)cc3Cl)c(C(=O)NOCCO)cc21 [Selumetinib]; settings: max 10 µM
Outline: as §1

[28] = compound: C[C@@H]1COCCN1C2=NC(=NC(=C2)C3(CC3)[S@](=N)(=O)C)C4=C5C=CNC5=NC=C4 [AZD6738]; settings: max 10 µM
Outline: as §1

[29] = compound: Cc1nc(-c2cn3c(n2)-c2ccc(-c4cnn(C(C)(C)C(N)=O)c4)cc2OCC3)n(C(C)C)n1 [Taselisib]; settings: max 10 µM
Outline: as §1

[30] = compound: C1CN(CCC1(C(=O)N[C@@H](CCO)C2=CC=C(C=C2)Cl)N)C3=NC=NC4=C3C=CN4 [AZD5363]; settings: max 10 µM
Outline: as §1

[31] = compound: CN(CC[C@H](CSC1=CC=CC=C1)NC2=C(C=C(C=C2)S(=O)(=O)NC(=O)C3=CC=C(C=C3)N4CCC(CC4)[C@H](C5=CC=CC=C5C6=CC=C(C=C6)Cl)O)S(=O)(=O)C(F)(F)F)CCO [AZD4320]; settings: max 1 µM
Outline: as §1

[32] = compound: N#Cc1cnc(Nc2cc(NC[C@H]3CNCCO3)c(C(F)(F)F)cn2)cn1 [SRA737]; settings: max 10 µM
Outline: as §1

[33] = compound: Nc1ccn([C@@H]2O[C@H](CO)[C@@H](O)C2(F)F)c(=O)n1 [Gemcitabine]; settings: max 0.3 µM
Outline: as §1

[34] = compound: COc1cccc2c1C(=O)c1c(O)c3c(c(O)c1C2=O)C[C@@](O)(C(=O)CO)C[C@@H]3O[C@H]1C[C@H](N)[C@H](O)[C@H](C)O1 [Doxorubicin]; settings: max 1 µM
Outline: as §1

[35] = compound: CC1=CN2[C@@H](C1)C=NC3=CC(=C(C=C3C2=O)OC)OCCCCCOC4=C(C=C5C(=C4)N=C[C@@H]6CC(=CN6C5=O)C)OC [SG3199]; settings: max 0.001 µM
Outline: as §1

Cell Line | IC50, cell viability 72 h [1] | IC50, cell viability 72 h [2] | IC50, cell viability 72 h [3] | IC50, cell viability 72 h [4] | IC50, cell viability 72 h [5] | IC50, cell viability 72 h [6] | IC50, cell viability 72 h [7] | IC50, cell viability 72 h [8] | IC50, cell viability 72 h [9] | IC50, cell viability 72 h [10] | IC50, cell viability 72 h [11] | IC50, cell viability 72 h [12] | IC50, cell viability 72 h [13] | IC50, cell viability 72 h [14] | IC50, cell viability 72 h [15] | IC50, cell viability 72 h [16] | IC50, cell viability 72 h [17] | IC50, cell viability 72 h [18] | IC50, cell viability 72 h [19] | IC50, cell viability 72 h [20] | IC50, cell viability 72 h [21] | IC50, cell viability 72 h [22] | IC50, cell viability 72 h [23] | IC50, cell viability 72 h [24] | IC50, cell viability 72 h [25] | IC50, cell viability 72 h [26] | IC50, cell viability 72 h [27] | IC50, cell viability 72 h [28] | IC50, cell viability 72 h [29] | IC50, cell viability 72 h [30] | IC50, cell viability 72 h [31] | IC50, cell viability 72 h [32] | IC50, cell viability 72 h [33] | IC50, cell viability 72 h [34] | IC50, cell viability 72 h [35]
ME-1 (Acute Myeloid Leukemia) | > 10000 nM | > 300 nM | > 10000 nM | > 10000 nM | > 10000 nM | > 10000 nM | 7.88 nM | > 2000 nM | 1260 nM | > 10000 nM | > 20000 nM | > 1000 nM | > 3000 nM | > 300 nM | > 10000 nM | > 1000 nM | > 1000 nM | 694 nM | > 5000 nM | > 10000 nM | 315 nM | > 10000 nM | > 3000 nM | > 1000 nM | > 10000 nM | > 10000 nM | > 10000 nM | > 10000 nM | > 10000 nM | > 10000 nM | 22.7 nM | > 10000 nM | > 300 nM | > 1000 nM | > 1 nM
NB10 (Neuroblastoma) | > 10000 nM | > 300 nM | > 10000 nM | > 10000 nM | > 10000 nM | 56.6 nM | > 1000 nM | > 2000 nM | 892 nM | 3740 nM | 18400 nM | 328 nM | > 3000 nM | 6.51 nM | > 10000 nM | > 1000 nM | > 1000 nM | > 1000 nM | 3880 nM | > 10000 nM | 92 nM | 1950 nM | 273 nM | 664 nM | > 10000 nM | > 10000 nM | > 10000 nM | 5830 nM | 6730 nM | > 10000 nM | > 1000 nM | > 10000 nM | 87.1 nM | 528 nM | > 1 nM
NCI-H82 (Small Cell Lung Carcinoma) | > 10000 nM | > 300 nM | > 10000 nM | > 10000 nM | > 10000 nM | 1090 nM | > 1000 nM | > 2000 nM | 622 nM | 3570 nM | 11800 nM | > 1000 nM | > 3000 nM | 22.7 nM | 2690 nM | 844 nM | > 1000 nM | 227 nM | > 5000 nM | > 10000 nM | 18.2 nM | 2450 nM | 5.46 nM | 931 nM | > 10000 nM | > 10000 nM | > 10000 nM | 2110 nM | > 10000 nM | 1360 nM | > 1000 nM | 5800 nM | 32.8 nM | 254 nM | > 1 nM
NCI-H2085 (Non-Small Cell Lung Carcinoma) | > 10000 nM | > 300 nM | > 10000 nM | 3580 nM | > 10000 nM | 8070 nM | > 1000 nM | 152 nM | 3000 nM | > 10000 nM | > 20000 nM | > 1000 nM | > 3000 nM | > 300 nM | > 10000 nM | > 1000 nM | > 1000 nM | > 1000 nM | > 5000 nM | > 10000 nM | 67.3 nM | > 10000 nM | 382 nM | > 1000 nM | > 10000 nM | > 10000 nM | > 10000 nM | > 10000 nM | > 10000 nM | > 10000 nM | > 1000 nM | > 10000 nM | > 300 nM | > 1000 nM | > 1 nM
RO82-W-1 (Thyroid Gland Carcinoma) | > 10000 nM | > 300 nM | > 10000 nM | > 10000 nM | > 10000 nM | > 10000 nM | > 1000 nM | > 2000 nM | > 3000 nM | > 10000 nM | > 20000 nM | > 1000 nM | > 3000 nM | > 300 nM | > 10000 nM | > 1000 nM | > 1000 nM | > 1000 nM | > 5000 nM | > 10000 nM | > 1000 nM | > 10000 nM | > 3000 nM | > 1000 nM | > 10000 nM | > 10000 nM | > 10000 nM | > 10000 nM | > 10000 nM | > 10000 nM | > 1000 nM | > 10000 nM | > 300 nM | > 1000 nM | > 1 nM
